# Measurements reported in patent US11273152B2, “TRPV2 antagonists” (Instituto de Medicina Molecular João Lobo Antunes, priority 2017, dated 2022).
# Entries after “also recorded” stand apart in the source; their conditions may differ.
# Assays:
# TRPV2 = target: T1, TRPV2 (Homo sapiens, UniProt Q9Y5S1); test: Intracellular calcium imaging (Fura-2 AM) in HepG2 cells; type: cell-based; conditions: 1 at 5 μM
# T1 sequence (Q9Y5S1 1-764): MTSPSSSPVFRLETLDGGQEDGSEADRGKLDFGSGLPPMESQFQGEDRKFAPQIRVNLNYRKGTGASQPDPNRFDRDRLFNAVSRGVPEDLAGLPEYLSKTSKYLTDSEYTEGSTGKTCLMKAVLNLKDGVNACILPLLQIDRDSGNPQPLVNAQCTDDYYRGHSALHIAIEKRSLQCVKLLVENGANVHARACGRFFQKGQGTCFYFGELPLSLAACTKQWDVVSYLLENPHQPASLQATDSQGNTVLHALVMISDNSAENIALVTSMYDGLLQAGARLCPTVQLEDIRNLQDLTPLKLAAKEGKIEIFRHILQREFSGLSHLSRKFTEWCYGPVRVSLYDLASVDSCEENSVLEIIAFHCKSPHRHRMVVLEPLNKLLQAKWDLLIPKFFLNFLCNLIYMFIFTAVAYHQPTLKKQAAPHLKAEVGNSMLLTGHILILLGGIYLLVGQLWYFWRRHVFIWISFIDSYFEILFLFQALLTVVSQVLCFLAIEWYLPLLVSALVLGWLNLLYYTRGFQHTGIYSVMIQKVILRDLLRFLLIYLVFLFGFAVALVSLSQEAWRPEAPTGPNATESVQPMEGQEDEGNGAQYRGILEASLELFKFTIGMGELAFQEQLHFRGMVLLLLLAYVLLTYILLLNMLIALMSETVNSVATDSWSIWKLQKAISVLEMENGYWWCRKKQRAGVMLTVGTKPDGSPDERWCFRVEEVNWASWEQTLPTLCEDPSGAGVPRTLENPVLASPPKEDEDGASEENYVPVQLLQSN
# Procedure: Cells (ATCC) were grown to 50% confluency in DMEM (Gibco) supplemented with 10% FBS (Gibco), GlutaMax (Gibco), MEM and NEAA (Gibco), 4.5 g/L glucose and 0.11 g/L sodium pyruvate. Cells were seeded in μ-ibidi 8 well plates and transfected with TRPV2-RFP^34 (kindly gifted by Prof. Itaru Kojimu Gunma University, Japan). After 48 h of incubation, cells were subjected to calcium imaging. Intracellular calcium measurements were performed with Fura-2 AM (Life Technologies) and modified from previously described studies.^12 In short, 1 hour before the measurement, cells were loaded with 5 μM Fura-2-AM for 45 minutes. Cell medium was replaced by Tyrod's solution (119 mM NaCl, 5 mM KCl, 2 mM CaCl2, 2 mM MgCl2, 6 g/L glucose, 25 mM HEPES pH 7.4). Simultaneously, the respective treatment was added to the cells (final concentration of 1% DMSO (control), 5 μM piperlongumine and 10 μM tranilast) and cells were allowed to re-adjustment for 15 minutes. Fura-2 AM emissions from 340 nm and 380 nm excitation were recorded for 1 minute before TRPV2 was activated by addition of 4 μM or 20 μM cannabidiol (CBD). Image analysis was done using the MetaFluor Analyst software. The statistical analysis was performed with astatsa.com. After calcium imaging acquisition, the cells were immediately fixed with 4% paraformaldehyde for 15 min. […]
# U251 cells = test: Viability of U251 cells transiently over-expressing hTRPV2; type: cell-based, human; conditions: 5 μM PL, 24 hours, p=0.0002, n=9, listed as PL
# Procedure: 50,000 U251 cells were seeded in each well of a 24 well plate. The next day cells were transfected with hTRPV2-RFP plasmid. After incubating for 48 hours the media was changed and PL was added at 5 and 10 μM. 24 hours later cell viability was assessed using CellTitre-Blue (Promega). Transfection efficiency was assessed using flow cytometry.
# Cells were harvested from plates by washing with media (HEK293) or TrypLE express (Gibco). The media was removed after centrifugation and the cells were washed twice with binding buffer before being incubated for 30 minutes at room temperature with Annexin V-APC (eBiosciences, 1:100) and 7-AAD (Pharmigen, 1:50). Samples were diluted with binding buffer and analyzed by flow cytometry using BD LSRFortessa X-20 with FACS Diva software. Samples with single stains were used as controls.
# TRPC1 = TRPC1 (Homo sapiens, UniProt P48995); test: Fluorescence cell-based assay, TRPC1; conditions: membrane potential dye, duplicate
# Procedure: (§1) The assays were performed at SB Discovery (Glasgow, UK) on a fee-for-service basis. Human TRP cells were trypsinised, counted and seeded in black, clear-bottomed 96 well plates at a density of 50,000 cells per well in 100 μL volume and incubated overnight. Next day, the cells were loaded with calcium 5 dye or membrane potential dye. TRPV1-5, TRPA1, TRPM2, TRPM3, and TRPM8 were tested using the calcium 5 dye. TRPC1, TRPC3-7, and TRPM4-5 were tested using the membrane potential dye. Both dye solutions were made up in HEPES buffered Hank's balanced salt solution (HBSS). Dye solution (90 μL) was added to the wells and incubated at 37° C. for 1 hour. Test compounds and standard inhibitors (10 μL) were then added to the wells and incubated at room temperature for 10 minutes. The plates were then placed in the flexstation and fluorescence monitored every 1.52 seconds. After 20 seconds agonist was added and the fluorescence monitored for 2 minutes at 485 nm/525 nm and 530 nm/565 nm, Ex/Em, for the calcium 5 dye and the membrane potential dye respectively. Controls-TRPV1: capsazepine; TRPV2: tranilast; TRPV3: ruthenium red; TRPV4: ruthenium red; TRPV5: Gd^3+; TRPA1, ruthenium red; TRPC1: Gd^3+; TRPC3: Pyr3; TRPC4: ML 204; TRPC5: ML 204; TRPC6: ML 204; TRPC7: SKF 96365; TRPM2: 2-APB; TRPM3: Mef acid; TRPM4: clotrimazole; TRPM5: TPPO; TRPM8: 2-APB. […]
# TRPV1 = TRPV1 (Homo sapiens, UniProt Q8NER1); test: Fluorescence cell-based assay, TRPV1; conditions: calcium 5 dye, duplicate
# Procedure: as §1
# chiru TRPV2 orthologue = test: Isothermal titration calorimetry, chiru TRPV2; type: binding; conditions: chiru TRPV2 constructs; 100 μM
# TRPM4 = TRPM4 (Homo sapiens, UniProt Q8TD43); test: Fluorescence cell-based assay, TRPM4; conditions: membrane potential dye, duplicate
# Procedure: as §1
# TRPM5 = TRPM5 (Homo sapiens, UniProt Q9NZQ8); test: Fluorescence cell-based assay, TRPM5; conditions: membrane potential dye, duplicate
# Procedure: as §1
# Chain of TRPV1 (Q8NER1 whole entry): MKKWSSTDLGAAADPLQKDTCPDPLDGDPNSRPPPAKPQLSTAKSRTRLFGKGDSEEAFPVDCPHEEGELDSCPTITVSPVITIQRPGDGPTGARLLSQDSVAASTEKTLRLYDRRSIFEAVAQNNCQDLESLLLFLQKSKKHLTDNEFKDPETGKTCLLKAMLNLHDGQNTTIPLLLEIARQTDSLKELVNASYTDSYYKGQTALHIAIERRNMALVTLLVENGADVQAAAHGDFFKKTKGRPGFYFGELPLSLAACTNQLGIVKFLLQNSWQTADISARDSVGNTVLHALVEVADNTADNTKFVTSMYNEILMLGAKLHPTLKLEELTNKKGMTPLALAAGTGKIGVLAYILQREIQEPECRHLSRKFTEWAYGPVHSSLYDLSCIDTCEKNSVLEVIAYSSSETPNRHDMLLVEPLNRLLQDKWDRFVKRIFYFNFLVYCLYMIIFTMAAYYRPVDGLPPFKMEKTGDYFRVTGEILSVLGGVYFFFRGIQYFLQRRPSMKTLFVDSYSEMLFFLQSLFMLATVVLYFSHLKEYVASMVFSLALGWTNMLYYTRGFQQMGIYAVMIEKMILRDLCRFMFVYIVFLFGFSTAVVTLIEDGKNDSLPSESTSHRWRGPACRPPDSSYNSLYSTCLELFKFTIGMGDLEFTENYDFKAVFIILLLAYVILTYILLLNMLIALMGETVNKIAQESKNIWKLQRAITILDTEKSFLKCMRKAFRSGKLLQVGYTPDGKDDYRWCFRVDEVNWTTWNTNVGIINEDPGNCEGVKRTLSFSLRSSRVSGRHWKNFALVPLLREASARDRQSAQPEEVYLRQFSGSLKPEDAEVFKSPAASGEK
# Chain of TRPM5 (Q9NZQ8 whole entry): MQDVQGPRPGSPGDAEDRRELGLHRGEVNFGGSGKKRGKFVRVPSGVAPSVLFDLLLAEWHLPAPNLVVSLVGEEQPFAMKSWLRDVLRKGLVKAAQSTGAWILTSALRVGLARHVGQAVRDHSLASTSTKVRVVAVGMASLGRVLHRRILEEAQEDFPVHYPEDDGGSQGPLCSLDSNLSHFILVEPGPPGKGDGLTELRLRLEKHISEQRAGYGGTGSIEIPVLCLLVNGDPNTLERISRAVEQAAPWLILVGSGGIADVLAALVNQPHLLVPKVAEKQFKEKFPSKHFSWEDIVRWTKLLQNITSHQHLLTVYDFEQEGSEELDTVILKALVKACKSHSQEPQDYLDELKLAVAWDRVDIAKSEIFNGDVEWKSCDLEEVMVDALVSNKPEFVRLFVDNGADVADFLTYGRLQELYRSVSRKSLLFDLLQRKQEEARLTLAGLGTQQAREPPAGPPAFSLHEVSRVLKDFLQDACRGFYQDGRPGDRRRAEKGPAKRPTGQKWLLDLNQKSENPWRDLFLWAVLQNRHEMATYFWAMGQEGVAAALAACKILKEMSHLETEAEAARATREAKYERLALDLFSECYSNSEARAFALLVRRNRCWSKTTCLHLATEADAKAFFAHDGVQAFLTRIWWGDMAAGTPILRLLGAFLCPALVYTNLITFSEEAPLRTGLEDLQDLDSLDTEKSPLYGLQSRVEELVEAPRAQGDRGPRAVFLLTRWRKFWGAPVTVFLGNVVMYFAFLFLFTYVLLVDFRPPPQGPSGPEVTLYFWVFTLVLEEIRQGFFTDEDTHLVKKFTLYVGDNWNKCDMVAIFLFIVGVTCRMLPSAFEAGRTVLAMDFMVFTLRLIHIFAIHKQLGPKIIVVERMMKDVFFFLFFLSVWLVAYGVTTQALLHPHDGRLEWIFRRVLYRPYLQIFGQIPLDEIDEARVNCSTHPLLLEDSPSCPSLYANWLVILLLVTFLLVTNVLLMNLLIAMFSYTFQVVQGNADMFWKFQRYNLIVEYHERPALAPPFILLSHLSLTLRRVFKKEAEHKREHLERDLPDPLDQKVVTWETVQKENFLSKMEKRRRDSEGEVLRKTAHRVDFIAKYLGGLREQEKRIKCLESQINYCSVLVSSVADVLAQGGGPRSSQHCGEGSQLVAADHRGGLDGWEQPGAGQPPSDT
# Chain of TRPM4 (Q8TD43 whole entry): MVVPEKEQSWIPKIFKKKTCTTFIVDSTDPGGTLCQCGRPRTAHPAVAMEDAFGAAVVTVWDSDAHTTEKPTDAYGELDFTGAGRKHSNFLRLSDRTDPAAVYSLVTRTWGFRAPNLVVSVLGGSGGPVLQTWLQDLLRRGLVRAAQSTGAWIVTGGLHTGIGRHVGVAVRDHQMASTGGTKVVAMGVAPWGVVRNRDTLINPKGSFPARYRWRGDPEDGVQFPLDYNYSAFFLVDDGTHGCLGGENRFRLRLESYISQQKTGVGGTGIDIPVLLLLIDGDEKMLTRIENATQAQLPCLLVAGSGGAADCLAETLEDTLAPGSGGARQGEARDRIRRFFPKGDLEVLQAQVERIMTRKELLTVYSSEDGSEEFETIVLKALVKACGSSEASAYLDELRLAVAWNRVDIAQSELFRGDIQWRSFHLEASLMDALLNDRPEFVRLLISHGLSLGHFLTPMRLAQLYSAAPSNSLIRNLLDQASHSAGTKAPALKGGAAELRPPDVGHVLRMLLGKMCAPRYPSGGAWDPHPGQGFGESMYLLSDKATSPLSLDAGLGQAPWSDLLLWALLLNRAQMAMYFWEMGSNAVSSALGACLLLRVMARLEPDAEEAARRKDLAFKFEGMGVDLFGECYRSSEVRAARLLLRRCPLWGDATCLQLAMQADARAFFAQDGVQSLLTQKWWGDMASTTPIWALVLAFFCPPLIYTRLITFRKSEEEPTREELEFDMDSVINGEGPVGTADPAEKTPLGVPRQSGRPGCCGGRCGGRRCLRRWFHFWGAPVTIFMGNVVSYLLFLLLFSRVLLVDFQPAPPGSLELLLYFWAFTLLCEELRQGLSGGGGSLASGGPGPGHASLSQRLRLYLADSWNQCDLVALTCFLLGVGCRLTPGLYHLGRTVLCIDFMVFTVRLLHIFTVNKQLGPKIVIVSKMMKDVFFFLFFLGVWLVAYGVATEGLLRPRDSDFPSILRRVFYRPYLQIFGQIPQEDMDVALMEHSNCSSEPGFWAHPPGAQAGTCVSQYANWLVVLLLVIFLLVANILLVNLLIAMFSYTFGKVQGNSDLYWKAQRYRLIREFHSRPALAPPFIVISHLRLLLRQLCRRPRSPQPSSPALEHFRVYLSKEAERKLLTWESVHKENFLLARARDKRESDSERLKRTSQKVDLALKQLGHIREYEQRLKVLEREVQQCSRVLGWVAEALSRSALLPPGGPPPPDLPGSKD
# Chain of TRPC1 (P48995 whole entry): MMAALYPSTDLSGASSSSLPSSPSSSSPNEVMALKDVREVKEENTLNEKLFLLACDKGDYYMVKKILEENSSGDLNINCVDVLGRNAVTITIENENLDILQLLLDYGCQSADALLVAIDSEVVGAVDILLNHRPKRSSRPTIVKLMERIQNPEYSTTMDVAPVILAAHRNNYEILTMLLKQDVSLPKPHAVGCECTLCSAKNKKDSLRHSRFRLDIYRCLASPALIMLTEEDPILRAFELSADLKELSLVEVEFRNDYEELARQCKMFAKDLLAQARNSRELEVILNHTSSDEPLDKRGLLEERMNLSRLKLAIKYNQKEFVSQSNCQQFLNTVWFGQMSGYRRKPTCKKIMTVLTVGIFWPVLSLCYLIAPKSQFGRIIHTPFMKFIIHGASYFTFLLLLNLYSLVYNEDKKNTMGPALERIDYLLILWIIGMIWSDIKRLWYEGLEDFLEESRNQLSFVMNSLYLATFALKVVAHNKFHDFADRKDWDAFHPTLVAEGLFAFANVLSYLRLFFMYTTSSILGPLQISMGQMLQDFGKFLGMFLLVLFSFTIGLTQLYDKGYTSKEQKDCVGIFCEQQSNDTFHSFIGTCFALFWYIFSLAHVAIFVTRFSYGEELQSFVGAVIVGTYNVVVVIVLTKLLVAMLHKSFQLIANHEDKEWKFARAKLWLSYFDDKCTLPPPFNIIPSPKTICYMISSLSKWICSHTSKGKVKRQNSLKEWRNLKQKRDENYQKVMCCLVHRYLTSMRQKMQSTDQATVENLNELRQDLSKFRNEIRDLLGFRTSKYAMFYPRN
smiles,measurement,setting,value
"COc1cc(/C=C/C(=O)N2CCC=CC2=O)cc(OC)c1OC [Compound 1, piperlongumine]",Inhibition of CBD evoked calcium influx in HepG2 cells,TRPV2; CBD 4 μM,No statistically significant difference is observed between all samples
same,Inhibition of CBD evoked calcium influx in HepG2 cells,"TRPV2; CBD 20 μM, 120 s post stimulation",significantly inhibited; also recorded: significant difference between control and 1 (p<0.01)
same,Viability of hTRPV2-transfected cells vs non-transfected controls,U251 cells,reduced viability compared to the non-transfected controls; also recorded: increases PL toxicity
same,IC50,TRPC1,> 100 µM
same,IC50,TRPV1,> 100 µM
same,Binding by isothermal titration calorimetry,chiru TRPV2 orthologue,did not bind
same,IC50,TRPM4,> 100 µM
same,IC50,TRPM5,> 100 µM
